Values of other authors as cited in patent US20210361700A1 (priority 2020, published 2021).
Entries after “also recorded” stand apart in the source; their conditions may differ. Where two headings read alike, the source gives them in different places.

Key:
influenza vaccine = conditions: experimental models, including influenza vaccine
[1] = test system: pro-inflammatory cytokines, such as TNF-α, IL-6 and IL-8; conditions: acute viral respiratory infection
[2] = test system: TLR4 and NF-κB protein levels, ROS, acute tissue injury; conditions: models of lung injury
[3] = test system: influenza, adenovirus, Ebola, and others; conditions: high affinity, nonspecific binding to viral surface proteins
3CLpro of SARS-CoV = 3CLpro of SARS-CoV (Severe acute respiratory syndrome coronavirus, UniProt P0C6X7)
[4] = target: Plpro protease of SARS-CoV (Severe acute respiratory syndrome coronavirus, UniProt P0C6X7)
[5] = test system: acute respiratory infections; conditions: N=40; P=0.004; listed as quercetin
COVID-19 S-protein = COVID-19 S-protein (Severe acute respiratory syndrome coronavirus 2, UniProt P0DTC2)
[6] = test system: upper respiratory infection
SARS-CoV ACE2 receptor = conditions: studies with SARS-CoV; listed as quercetin
3CLpro of MERS = 3CLpro of MERS (Middle East respiratory syndrome-related coronavirus, UniProt K9N7C7)
[7] = test system: 3C-like protease (3CLpro) activity of COVID-19
[8] = test system: respiratory syndrome virus-1 vaccine; conditions: large mammal model
rhinovirus = rhinovirus infection in mice (COPD)
influenza [9] = conditions: animal models of influenza
influenza [10] = test system: influenza
[11] = test system: acute respiratory infections; conditions: for colds: secondary analysis, older adults
T cell function = conditions: for T cell function in older adults: supplementation
strep pneumonia = conditions: old mice; by reducing neutrophil migration and inflammatory cytokines
[12] = test system: vascular endothelial function; conditions: meta-analyses of randomized controlled trials
[13] = test system: hepatitis B and tetanus vaccines; conditions: for antibody titer / antibody response to vaccines: in vivo
[14] = test system: acute respiratory infections; conditions: for lower respiratory infection: zinc supplementation, older adults
[15] = target: RNA-dependent RNA polymerase of SARS-CoV (Severe acute respiratory syndrome coronavirus, UniProt P0C6X7)
[16] = test system: common cold (often caused by coronaviruses); conditions: short-term zinc supplementation at onset of symptoms; 17 RCTs pooled; 95% CI 0.81 to 2.50; listed as zinc
[17] = subset of subjects 40+ years (N=325), secondary analysis

3CLpro of MERS, sequence (K9N7C7 3248-3553 limits assumed): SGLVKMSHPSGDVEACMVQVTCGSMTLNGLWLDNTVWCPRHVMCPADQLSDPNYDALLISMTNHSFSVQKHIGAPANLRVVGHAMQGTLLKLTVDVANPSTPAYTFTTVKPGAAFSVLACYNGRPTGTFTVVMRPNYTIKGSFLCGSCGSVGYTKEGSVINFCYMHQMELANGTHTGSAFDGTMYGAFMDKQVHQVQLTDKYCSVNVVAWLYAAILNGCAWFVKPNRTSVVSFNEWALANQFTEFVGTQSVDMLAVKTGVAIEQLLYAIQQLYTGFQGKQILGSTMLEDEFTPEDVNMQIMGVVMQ

In the case of `O=C(O[C@@H]1Cc2c(O)cc(O)cc2O[C@@H]1c1cc(O)c(O)c(O)c1)c1cc(O)c(O)c(O)c1` [EGCG, epigallocatechin gallate], the “immune response to vaccination” value (influenza vaccine) is listed as “potentiated”, the pro-inflammatory cytokines [1] is listed as “down-regulates; also recorded: Down-regulatcs pro-” and the “TLR4 and NF-κB protein levels, ROS, acute tissue injury” value [2] is listed as “Suppresses inflammatory”. For the same compound, the “infectivity of a wide range of viruses” value [3] was “Inhibits infectivity of a wide”, the “biomarkers of endothelial dysfunction such as ICAM-1 and VCAM-1” value (endothelial cells) was “lowers” and the endothelin-1 production (endothelial cells; endothelial cells) was “reduces”. For the same compound, the “nitric oxide (NO) release” value (endothelial cells; endothelial cells) was “induces”, the “excessive endothelial oxidative stress” value (endothelial cells; through effects on the Nrf2/HO-1 pathway) was “reduces” and the “inhibition of 3CLpro of SARS-CoV” value (3CLpro of SARS-CoV) was “Inhibits the (3CL^pro) activity”. For the same compound, the “OR, clinically diagnosed influenza infection” value (colds or influenza; 95% CI=0.07-0.76) was 0.25, the “HR, days free from influenza infection” value (colds or influenza; 95% CI=0.09-0.84) was 0.27 and the “reduced clinically diagnosed influenza infection” value (colds or influenza; in vivo) was 75%. For the same compound, the “reduced days free from influenza infection” value (colds or influenza; in vivo) was 73%.
For `O=c1c(O)c(-c2ccc(O)c(O)c2)oc2cc(O)cc(O)c12` [Quercetin, quercetin], the “inhibition of Plpro protease of SARS-CoV” value [4] is listed as “inhibits”, the “incidence of acute respiratory infections” value [5] is listed as “significantly reduced” and the “antagonist of S-protein binding to host ACE2 receptor, computer modeling” value (COVID-19 S-protein) is listed as “other compounds as a top”. For the same compound, the “antagonist of S-protein binding to host ACE2 receptor, computer modeling” value (COVID-19 S-protein; listed as quercetin) was “top potential antagonist”, the “effect on rates of upper respiratory infections” value ([6]; overall, N=1,002) was “no overall significant effect” and the “reduced duration of upper respiratory infection (total sick days)” value [6, 17] was “(−31%) in a secondary analysis”. The “reduced severity of upper respiratory infection (symptom severity)” value [6, 17] was “severity (−36%) and total sick days”, the “binding to ACE2 receptor / antagonism of S-protein binding” value (SARS-CoV ACE2 receptor) was “binds” and the “inhibition of 3CLpro of MERS” value (3CLpro of MERS) was “inhibits”. The “inhibition of 3CLpro activity of COVID-19” value [7] was “Inhibits the 3C-like protease”, the “effects in vitro on endothelial cell pathways” value (endothelial cells; in vitro) was “several beneficial effects” and the “response to respiratory syndrome virus-1 vaccine” value [8] was “improves”. The “inhibition of 3CLpro of SARS-CoV” value (3CLpro of SARS-CoV) was “inhibits”, the “cytokine storm / inflammation and lung injury” value (rhinovirus) was “inhibits cytokine storm and reduces lung injury” and the “superoxide radical formation, lung pathology, overall risk of infection induced by influenza” value (influenza [9]) was “Reduces superoxide”. The “viral replication and risk of acute infection” value (influenza [9]) was “inhibits”.
For Vitamin E, the “survival in viral pneumonia” value (influenza [10]; mouse, in vivo) is given as “increases survival”, the “viral load in viral lung infections” value (influenza [10]; mouse, in vivo) is given as “Reduces viral load in viral” and the “excessive lung inflammatory responses / inflammatory cytokine production” value (influenza [10]; viral infection, influenza) is given as “dampens; also recorded: Reduces inflammatory”. For the same compound, the “risk of total acute respiratory infections” value ([11]; nursing home residents) was “reduced the risk”, the colds [11] was “Decreased colds in older adults” and the colds ([11]; listed as vitamin E) was “reduced the risk”. For the same compound, the pneumonia ([11]; subset of nursing home residents with polymorphism) was “Decreased pneumonia in a subset”, the “cell-dividing and IL-producing capacities of naive T cells” value (T cell function; naive T cells, but not memory T cells) was “increased” and the “T cell function in older adults” value (T cell function) was “increases”. For the same compound, the “survival from strep pneumonia infection” value (strep pneumonia) was “Increases survival from”, the vascular endothelial function [12] was “improve” and the “in vivo delayed-type hypersensitivity skin response” value [13] was “improves”. The “antibody titer / antibody response to vaccines” value [13] was “increase; also recorded: improves”.
In the case of zinc, the “acute respiratory infections in the elderly” value ([14]; double-blind, placebo controlled trial) is given as “reduced”, the lower respiratory infection [14] is given as “adults and reduces lower” and the lower respiratory infection ([14]; listed as zinc) is given as “reduces”. For the same compound, the “inhibition of RNA-dependent RNA polymerase” value [15] was “Inhibits the RNA-dependent”, the “T cell function in older adults” value (T cell function) was “Increases T cell function in older” and the “T cell function in older adults” value (T cell function; listed as zinc) was “increases”. For the same compound, the inflammation (inflammation) was “Reduces inflammation”, the “reduced days of illness” value [16] was -1.65 days and the “antibody titer / antibody response to vaccines” value [13] was “increase; also recorded: restores”.
